In PubChem BioAssay (NCI) one finds GI50 and TGI data, which are given here for seven compounds.

What all share (assay): DTP human tumour cell line panel, 48 h
The subject of assay [1] is BT-549 breast.
In assay [2] the test system is COLO 205 colon.
The subject of assay [3] is EKVX NSCLC.
Assay [4] deals with HL-60(TB) leukemia.
Assay [5] has as its system MOLT-4 leukemia.
Assay [6] concerns NCI-H23 lung.
For assay [7], the system named is NCI-H460 lung.
The test system of assay [8] is RPMI-8226 leukemia.
In assay [9] the test system is SK-OV-3 ovarian.
The test system of assay [10] is T-47D breast.

A word on the GI50: it is the concentration that inhibits growth by half. What is called TGI is the concentration at which net growth stops. The low end stands for more potent growth arrest, the high end for less potent growth arrest.

“And” between values parts separate entries of the source, which are not always exact repeats. Equal values may be shown once.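 In this assay, cells in 96-well plates receive the compound at five concentrations for 48 hours. Endpoints are linearly interpolated between the surrounding concentrations. The concentration for 50% growth inhibition is given as GI50. TGI: concentration producing complete growth inhibition.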

For the compound `Nc1ccccc1NC(=O)c1ccc(CN2CCC/C(=C\c3cccc(Cl)c3)C2=O)cc1`, the GI50 is 1400 nM in [1]; 157 nM in assay [2]; 567 nM in assay [3]; 449 nM in assay [4]; 474 nM in assay [5]; 342 nM in assay [6]. The GI50 in assay [7] was 96.2 nM; in assay [8], 921 nM; in assay [9] it was 626 nM; in assay [10], 3340 nM. In addition, the TGI in [1] is 5520 nM; in [3] it was more than 100000 nM; in assay [4] it was 4890 nM; in assay [5], more than 100000 nM; in assay [6], 24200 nM; in assay [7], more than 100000 nM. The TGI in assay [8] was determined as 4580 nM; in [9] it was 26400 nM; in assay [10], 56600 nM.

`Oc1cc(O)c2c(=S)cc(-c3ccc(Cl)cc3)oc2c1`: the GI50 in [1] was 3380 nM; in assay [2], 15300 nM; in assay [3], 9360 nM; in [4] it was 3170 nM; in [5] it was 3760 nM; in assay [6] it was 2060 nM. Further, the GI50 in assay [7] was 2960 nM; in [8] it was 2820 nM; in assay [9] it was 2770 nM; in assay [10], 30.4 nM. Besides, the total growth inhibition concentration (TGI) in assay [1] was found to be 12600 nM; in [2] it was 33600 nM; in assay [3], 54100 nM; in assay [4] it was 22500 nM; in assay [5], 34200 nM; in [6] it was 8800 nM. Further, the TGI in assay [7] was found to be 13300 nM; in assay [8] it was 9900 nM; in assay [9], 18200 nM; in [10], 547 nM.

For `CCc1c(Cl)nc(Cl)nc1Cl`, the TGI turned out to be 133 nM in [1]; 284 nM in [2]; 1940 nM in assay [3]; 674 nM in [4]; 9500 nM in [5]; 2060 nM in assay [6]. For the same compound, the TGI in assay [7] came to 10400 nM; in [8] it was 252 nM; in assay [9], 12300 nM; in assay [10] it was 1700 nM.

In the case of `COc1cccc(C2C3=C(COC3=O)N(CCO)c3cc4c(cc32)OCCO4)c1` (stereo unspecified), the GI50 is 255 nM in [1]; 108 nM in [2]; 265 nM in [3]; 111 nM in [4]; 195 nM in assay [5]; 150 nM in assay [6]. The GI50 is 148 nM in assay [7], 56.4 nM in assay [8], 128 nM in assay [9] and 239 nM in assay [10]. For the same compound, the total growth inhibition concentration (TGI) in assay [1] is more than 10900 nM; in assay [2], 268 nM; in [3], more than 50000 nM; in assay [4], 422 nM; in [6], more than 50000 nM; in [7], 1190 nM. The TGI in assay [9] was 4280 nM; in assay [10] it was more than 50000 nM.

On to `CC1OC(OC2CC(O)C3(CO)C4C(O)CC5(C)C(C6=CC(=O)OC6)CCC5(O)C4CCC3(O)C2)C(O)C(O)C1O` (stereo unspecified), for which the GI50 in [1] is less than 12.9 nM; in assay [2] it was 23.9 nM; in assay [3], less than 10.7 nM; in assay [5], less than 12.3 nM; in assay [6] it was less than 10.8 nM; in assay [7] it was less than 11.1 nM. The figures for the GI50 in [8], in assay [9] and in assay [10] were 16.7 nM, 15.7 nM and less than 12.1 nM, respectively. Also, the concentration for total growth inhibition (TGI) in assay [1] is 20.8 nM; in assay [2], 116 nM; in assay [3], less than 14.2 nM; in assay [4], 235 nM; in assay [5], 1780 nM; in [6], less than 14.2 nM. For the same compound, the TGI in [7] amounted to 17.4 nM; in assay [8], 206 nM; in [9] it was 55.2 nM; in [10], 34.2 nM.

Regarding `COc1cc([C@@H]2c3cc4c(cc3[C@H](O)[C@H]3COC(=O)[C@H]23)OCO4)cc(OC)c1OC`, the 50% growth inhibitory concentration (GI50) in assay [1] was less than 10 nM; in [2], less than 10 nM; in assay [4], less than 10 nM; in assay [5], less than 10 nM; in [6], less than 10 nM; in assay [7], less than 5 nM. Further, the GI50 was less than 10 nM in assay [8], less than 10 nM in [9] and more than 84500 nM in [10]. Further, the TGI in assay [2] was less than 5 nM; in assay [3], > 100000 nM and 50000 nM; in assay [4], less than 5 nM; in assay [6], > 100000 nM and 50000 nM and > 7430 nM; in assay [7], > 100000 nM and 50000 nM and > 7950 nM; in [10], > 100000 nM and 34100 nM.

In the case of `O=C(CCCc1ccccn1)c1ccccc1`, the TGI in [1], in [2], in [3], in assay [4], in assay [5] and in assay [6] was more than 100000 nM each time. The TGI in [7], in [8], in assay [9] and in assay [10] was more than 100000 nM in each case.
